Measurements from patent US9637481B2 (RALEXAR THERAPEUTICS, INC., priority 2012, dated 2017).

Each compound was assayed against T1, human LXRβ (AA 153-461) LBD (Homo sapiens, UniProt P55055) (assay: Gal4 LXRβ cotransfection assay (LXRβ Gal fusion assay)). Details: HEK 293 cells, Gal4-responsive luciferase reporter, compounds 0.01-10 μM.
T1 construct: pM human LXRβ (AA 153-461) LBD plasmid; expressed in transfected cells; host or cells: HEK 293
T1 sequence (P55055 153-460 limits assumed): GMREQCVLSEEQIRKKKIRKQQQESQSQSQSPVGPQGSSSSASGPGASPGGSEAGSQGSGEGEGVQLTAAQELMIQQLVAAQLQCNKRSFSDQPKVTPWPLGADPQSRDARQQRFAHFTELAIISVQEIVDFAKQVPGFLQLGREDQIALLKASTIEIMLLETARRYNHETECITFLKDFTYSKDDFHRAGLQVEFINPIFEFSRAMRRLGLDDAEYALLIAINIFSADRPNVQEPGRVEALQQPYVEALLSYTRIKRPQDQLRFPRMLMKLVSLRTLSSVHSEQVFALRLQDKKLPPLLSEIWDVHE
Format: cell-based
Procedure: For transient transfection of HEK 293 cells, 6×10^3 cells were plated into 96-well dishes. Each well was transfected with 25 ng 5×UAS-luciferase reporter (pG5luc) and 25 ng of pM human LXRβ (AA 153-461) LBD plasmid using Fugene 6 reagent (Roche; Indianapolis, Ind.). The chimeric protein was assessed for the ability to transactivate a Gal4-responsive luciferase reporter plasmid in a concentration-responsive manner to compounds (0.01-10 μM). Luciferase activity at each dose concentration was measured in triplicate using standard substrate reagents (BD Biosciences; San Diego, Calif.). Data are expressed as relative light units and are shown below in Table 1.

| SMILES | EC50 [nM] |
| --- | --- |
| CCOC(=O)Cn1nc(C(F)(F)F)cc1-c1ccc(-c2cccc(S(C)(=O)=O)c2)cc1 [Compound 36, ethyl 2-(5-(3′-(methylsulfonyl)-[1,1′-biphenyl]-4-yl)-3-(trifluoromethyl)-1H-pyrazol-1-yl)acetate] | < 1000 |
| COC(=O)c1cc(-c2nnc(-c3cccc(S(C)(=O)=O)c3)o2)n(-c2ccccc2Cl)n1 [Compound 11, methyl 1-(2-chlorophenyl)-5-(5-(3-(methylsulfonyl)phenyl)-1,3,4-oxadiazol-2-yl)-1H-pyrazole-3-carboxylate] | < 1000 |
| COC(=O)Cn1nc(C(F)(F)F)cc1-c1ccc(-c2cccc(S(C)(=O)=O)c2)s1 [Compound 18, methyl 2-(5-(5-(3-(methylsulfonyl)phenyl)thiophen-2-yl)-3-(trifluoromethyl)-1H-pyrazol-1-yl)acetic acid] | > 10000 |
| CS(=O)(=O)c1cccc(-c2ccc(-c3cc(C(F)(F)F)nn3CC(=O)OCCl)s2)c1 [Compound 52, chloromethyl 2-(5-(5-(3-(methylsulfonyl)phenyl)thiophen-2-yl)-3-(trifluoromethyl)-1H-pyrazol-1-yl)acetate] | < 1000 |
| CS(=O)(=O)c1cccc(-c2ccc(-c3cc(C(F)(F)F)nn3CC(=O)O)cc2)c1 [Compound 38, 2-(5-(3′-(methylsulfonyl)-[1,1′-biphenyl]-4-yl)-3-(trifluoromethyl)-1H-pyrazol-1-yl)acetic acid] | > 10000 |
| CCOC(=O)Cn1nc(C(F)(F)F)cc1-c1ccc(-c2cccc(S(C)(=O)=O)c2)s1 [Compound 16, ethyl 2-(5-(5-(3-(methylsulfonyl)phenyl)thiophen-2-yl)-3-(trifluoromethyl)-1H-pyrazol-1-yl)acetate] | < 1000 |
| CCOC(=O)Cn1nc(C(F)(F)F)cc1-c1ccc(-c2ccc(CO)c(S(C)(=O)=O)c2)s1 [Compound 50, ethyl 2-(5-(5-(4-(hydroxymethyl)-3-(methylsulfonyl)phenyl)thiophen-2-yl)-3-(trifluoromethyl)-1H-pyrazol-1-yl)acetate] | < 1000 |
| CC(C)OC(=O)Cn1nc(C(F)(F)F)cc1-c1ccc(-c2cccc(S(C)(=O)=O)c2)s1 [Compound 49] | < 1000 |
| CCOC(=O)Cn1nc(C(F)(F)F)cc1-c1ccc(-c2ccc(CO)c(S(C)(=O)=O)c2)cc1 [Compound 51, ethyl 2-(5-(4′-(hydroxymethyl)-3′-(methylsulfonyl)biphenyl-4-yl)-3-(trifluoromethyl)-1H-pyrazol-1-yl)acetate] | < 1000 |
| CS(=O)(=O)c1cccc(-c2nnc(-c3cc(C(=O)O)nn3-c3ccccc3Cl)o2)c1 [Compound 12, 1-(2-chlorophenyl)-5-(5-(3-(methylsulfonyl)phenyl)-1,3,4-oxadiazol-2-yl)-1H-pyrazole-3-carboxylic acid] | > 10000 |
| COC(=O)c1cc(-c2nnc(-c3cccc(S(C)(=O)=O)c3)s2)n(-c2ccccc2Cl)n1 [Compound 9, methyl 1-(2-chlorophenyl)-5-(5-(3-(methylsulfonyl)phenyl)-1,3,4-thiadiazol-2-yl)-1H-pyrazole-3-carboxylate] | 1000 to 10000 |
| CSCOC(=O)Cn1nc(C(F)(F)F)cc1-c1ccc(-c2cccc(S(C)(=O)=O)c2)cc1 [Compound 41, methylthiomethyl 2-(5-(3′-(methylsulfonyl)biphenyl-4-yl)-3-(trifluoromethyl)-1H-pyrazol-1-yl)acetate] | 1000 to 10000 |
| CS(=O)(=O)c1cccc(-c2nnc(-c3cc(C(=O)O)nn3-c3ccccc3Cl)s2)c1 [Compound 10, 1-(2-chlorophenyl)-5-(5-(3-(methylsulfonyl)phenyl)-1,3,4-thiadiazol-2-yl)-1H-pyrazole-3-carboxylic acid] | > 10000 |
